Measured values as given in patent US20210403874A1, “Method for Producing Stem/Precursor Cells, By Using Low Molecular Weight Compound, From Cells Derived From Endodermal Tissue or Organ” (Evia Life Sciences Inc., priority 2018, published 2021).

Tested on: pancreatic progenitor cells
Assay: Induction of differentiation from pancreatic progenitor cells into insulin-producing cells (floating culture)
Format: cell-based
Details: floating culture 7 days in the presence of YAC together with ALK5 inhibitor II, versus YAC; FIG. 6
Method: Total RNA was isolated from the pancreatic exocrine cells and PSC cells using miRNeasy Mini Kit (QIAGEN). Reverse transcription reaction was carried out using High-Capacity cDNA Reverse Transcription Kit (Life Technologies) following the manufacturer's guideline. The resulting cDNA was used as a template to perform PCR with Platinum SYBR Green qPCR SuperMix UDG (Invitrogen). The expression level of the target gene was normalized with β-actin as the endogenous control.
The cells were fixed with 4% paraformaldehyde for 15 minutes. The resultant was incubated with a blocking solution (Blocking One) (Nacalai Tesque, Kyoto) at 4° C. for 30 minutes, and then the cells were incubated with primary antibody at room temperature for an hour or at 4° C. overnight. Then, Alexa Fluor 488- or Alexa Fluor 594-labeled secondary antibody (Life Technologies) was used to detect the primary antibody. The nuclei were co-stained with Hoechst 33342 (Dojindo).
The cells were suspended in 5% FBS-containing SHM+YAC (cell density: 1×10^4 to 1×10^6 cells/cm') and cultured on an ultra-low adsorption culture dish for 7 days. The medium was exchanged on the fourth day.

Compound: Cc1cccc(-c2[nH]ncc2-c2ccc3ncccc3n2)n1 [ALK5 inhibitor II]
- mRNA expression of Insulin and GLUT2: further improvements
